# Measurements from the supplement of paper PMC10307832.
# Legend:
# Test in all cases: relative viability (nuclei count vs DMSO), 5 days (fraction); higher = more cells survive
# ABC-1 = system: ABC-1
# How it was run: (§1)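 Cells from lung cancer lines were seeded into 1536-well plates and, one day later, dosed by pin tool. Treatments were either a single drug or a fixed dose of an anchor drug with five library-drug doses (not always all listed) in √10 steps. After 5 days, nuclei were stained in a one-step fixation (final 0.05% Triton X-100, 1% formaldehyde, 1 ug/ml Hoechst) and counted on 4× images, and relative viability is the treated-to-vehicle nuclei ratio, as the median of duplicate plates.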
# CAL-12T = system: CAL-12T
# How it was run: as §1
# COR-L 105 = system: COR-L 105
# How it was run: as §1
# EMC-BAC-2 = system: EMC-BAC-2
# How it was run: as §1
# EPLC-272H = system: EPLC-272H
# How it was run: as §1
# HCC-15 = system: HCC-15
# How it was run: as §1
# HCC-78 = system: HCC-78
# How it was run: as §1
# HOP-62 = system: HOP-62
# How it was run: as §1
# LXF-289 = system: LXF-289
# How it was run: as §1
# NCI-H1666 = system: NCI-H1666
# How it was run: as §1
# NCI-H1755 = system: NCI-H1755
# How it was run: as §1
# NCI-H1915 = system: NCI-H1915
# How it was run: as §1
# NCI-H1975 = system: NCI-H1975
# How it was run: as §1
# NCI-H1993 = system: NCI-H1993
# How it was run: as §1
# NCI-H2023 = system: NCI-H2023
# How it was run: as §1
# NCI-H2085 = system: NCI-H2085
# How it was run: as §1
# NCI-H2126 = system: NCI-H2126
# How it was run: as §1
# NCI-H3122 = system: NCI-H3122
# How it was run: as §1
# NCI-H322M = system: NCI-H322M
# How it was run: as §1
# NCI-H358 = system: NCI-H358
# How it was run: as §1
# UMC-11 = system: UMC-11
# How it was run: as §1
compound,measurement,setting,value
Clc1ccc(Nc2nnc(Cc3ccncc3)c3ccccc23)cc1 [Vatalanib] + CS(=O)(=O)CCNCc1ccc(-c2ccc3ncnc(Nc4ccc(OCc5cccc(F)c5)c(Cl)c4)c3c2)o1 [Lapatinib] (partner 2 µM),relative viability,ABC-1; first compound 0.04 µM,1.33
same,relative viability,ABC-1; first compound 0.1265 µM,0.931
same,relative viability,ABC-1; first compound 0.4 µM,1.16
same,relative viability,ABC-1; first compound 1.265 µM,1.23
same,relative viability,ABC-1; first compound 4 µM,1.05
same,relative viability,CAL-12T; first compound 0.04 µM,0.63
same,relative viability,CAL-12T; first compound 0.1265 µM,0.668
same,relative viability,CAL-12T; first compound 1.265 µM,0.678
same,relative viability,CAL-12T; first compound 4 µM,0.633
same,relative viability,COR-L 105; first compound 0.04 µM,0.375
same,relative viability,COR-L 105; first compound 0.1265 µM,0.301
same,relative viability,COR-L 105; first compound 0.4 µM,0.404
same,relative viability,COR-L 105; first compound 1.265 µM,0.358
same,relative viability,COR-L 105; first compound 4 µM,0.353
same,relative viability,EMC-BAC-2; first compound 0.04 µM,0.905
same,relative viability,EMC-BAC-2; first compound 0.1265 µM,0.884
same,relative viability,EMC-BAC-2; first compound 0.4 µM,0.919
same,relative viability,EMC-BAC-2; first compound 1.265 µM,0.832
same,relative viability,EMC-BAC-2; first compound 4 µM,0.885
same,relative viability,EPLC-272H; first compound 0.04 µM,0.931
same,relative viability,EPLC-272H; first compound 0.1265 µM,0.9
same,relative viability,EPLC-272H; first compound 0.4 µM,0.23
same,relative viability,EPLC-272H; first compound 1.265 µM,0.985
same,relative viability,EPLC-272H; first compound 4 µM,1.01
same,relative viability,HCC-15; first compound 0.04 µM,0.874
same,relative viability,HCC-15; first compound 0.1265 µM,0.699
same,relative viability,HCC-15; first compound 0.4 µM,0.853
same,relative viability,HCC-15; first compound 1.265 µM,0.825
same,relative viability,HCC-15; first compound 4 µM,0.837
same,relative viability,HCC-78; first compound 0.04 µM,0.694
same,relative viability,HCC-78; first compound 0.1265 µM,0.634
same,relative viability,HCC-78; first compound 0.4 µM,0.937
same,relative viability,HCC-78; first compound 4 µM,0.478
same,relative viability,HOP-62; first compound 0.04 µM,1.13
same,relative viability,HOP-62; first compound 0.4 µM,1.06
same,relative viability,HOP-62; first compound 1.265 µM,0.827
same,relative viability,HOP-62; first compound 4 µM,0.989
same,relative viability,LXF-289; first compound 0.04 µM,0.959
same,relative viability,LXF-289; first compound 0.1265 µM,0.82
same,relative viability,LXF-289; first compound 0.4 µM,0.98
same,relative viability,LXF-289; first compound 1.265 µM,0.891
same,relative viability,LXF-289; first compound 4 µM,0.904
same,relative viability,NCI-H1666; first compound 0.04 µM,0.728
same,relative viability,NCI-H1666; first compound 0.1265 µM,0.749
same,relative viability,NCI-H1666; first compound 0.4 µM,0.863
same,relative viability,NCI-H1666; first compound 1.265 µM,0.529
same,relative viability,NCI-H1666; first compound 4 µM,0.545
same,relative viability,NCI-H1755; first compound 0.04 µM,1.02
same,relative viability,NCI-H1755; first compound 0.1265 µM,1.02
same,relative viability,NCI-H1755; first compound 0.4 µM,1.09
same,relative viability,NCI-H1755; first compound 1.265 µM,0.946
same,relative viability,NCI-H1755; first compound 4 µM,0.951
same,relative viability,NCI-H1915; first compound 0.04 µM,0.974
same,relative viability,NCI-H1915; first compound 0.1265 µM,0.88
same,relative viability,NCI-H1915; first compound 0.4 µM,0.839
same,relative viability,NCI-H1915; first compound 1.265 µM,0.93
same,relative viability,NCI-H1915; first compound 4 µM,1.01
same,relative viability,NCI-H1975; first compound 0.04 µM,0.856
same,relative viability,NCI-H1975; first compound 0.1265 µM,0.827
same,relative viability,NCI-H1975; first compound 0.4 µM,0.942
same,relative viability,NCI-H1975; first compound 1.265 µM,0.808
same,relative viability,NCI-H1975; first compound 4 µM,0.769
same,relative viability,NCI-H1993; first compound 0.04 µM,0.909
same,relative viability,NCI-H1993; first compound 0.1265 µM,0.721
same,relative viability,NCI-H1993; first compound 0.4 µM,0.828
same,relative viability,NCI-H1993; first compound 1.265 µM,0.755
same,relative viability,NCI-H1993; first compound 4 µM,0.747
same,relative viability,NCI-H2023; first compound 0.04 µM,0.749
same,relative viability,NCI-H2023; first compound 0.1265 µM,0.725
same,relative viability,NCI-H2023; first compound 0.4 µM,1.05
same,relative viability,NCI-H2023; first compound 1.265 µM,0.681
same,relative viability,NCI-H2023; first compound 4 µM,0.736
same,relative viability,NCI-H2085; first compound 0.04 µM,0.818
same,relative viability,NCI-H2085; first compound 0.1265 µM,0.736
same,relative viability,NCI-H2085; first compound 0.4 µM,0.891
same,relative viability,NCI-H2085; first compound 1.265 µM,0.701
same,relative viability,NCI-H2085; first compound 4 µM,0.723
same,relative viability,NCI-H2126; first compound 0.04 µM,0.787
same,relative viability,NCI-H2126; first compound 0.1265 µM,0.823
same,relative viability,NCI-H2126; first compound 0.4 µM,0.773
same,relative viability,NCI-H2126; first compound 1.265 µM,0.744
same,relative viability,NCI-H2126; first compound 4 µM,0.71
same,relative viability,NCI-H3122; first compound 0.04 µM,1.01
same,relative viability,NCI-H3122; first compound 0.1265 µM,1.01
same,relative viability,NCI-H3122; first compound 0.4 µM,1.01
same,relative viability,NCI-H3122; first compound 1.265 µM,0.977
same,relative viability,NCI-H3122; first compound 4 µM,0.97
same,relative viability,NCI-H322M; first compound 0.04 µM,0.493
same,relative viability,NCI-H322M; first compound 0.1265 µM,0.637
same,relative viability,NCI-H322M; first compound 0.4 µM,0.509
same,relative viability,NCI-H322M; first compound 1.265 µM,0.561
same,relative viability,NCI-H322M; first compound 4 µM,0.535
same,relative viability,NCI-H358; first compound 0.04 µM,0.498
same,relative viability,NCI-H358; first compound 0.1265 µM,0.429
same,relative viability,NCI-H358; first compound 0.4 µM,0.564
same,relative viability,NCI-H358; first compound 1.265 µM,0.355
same,relative viability,NCI-H358; first compound 4 µM,0.457
same,relative viability,UMC-11; first compound 0.04 µM,0.924
same,relative viability,UMC-11; first compound 0.1265 µM,0.941
same,relative viability,UMC-11; first compound 0.4 µM,0.976
same,relative viability,UMC-11; first compound 1.265 µM,0.975
same,relative viability,UMC-11; first compound 4 µM,1.13
